Data: publication PMC7176092, “Development of the first in vivo GPR17 ligand through an iterative drug discovery pipeline: A novel disease-modifying strategy for multiple sclerosis” (PLoS ONE, 2020)
Where two headings read alike, the source gives them in different places.

Legend:
OPC-DRG co-cultures = assay: In vitro myelination assay; format: cell-based, rat OPCs, mouse DRG; settings: 10 nM; CTRL 100%; mean ± S.E.M.
Experimental: OPC-DRG co-cultures were prepared according to a previously described protocol.
DRG explants from E14.5 mice were directly put in culture after being plucked off from embryo spinal cords. Then, they were grown in Neurobasal medium (Life Technologies) in presence of 100 ng/ml nerve growth factor (NGF, Sigma-Aldrich), and in presence of 10 μM fluorodeoxyuridine (FUDR, Sigma-Aldrich) in order to remove all non-neuronal cells.
Purified primary rat OPCs were obtained from mixed glial cultures by orbital shaking for 3 hours. […]
At day 15, OPC/DRG co-cultures treated with either the selected compounds or the vehicle were fixed and treated with rat anti-MBP (Millipore), mouse anti-SMI 31 and mouse anti-SMI 32 (Cell Signaling), followed by the secondary goat anti-rat/-mouse antibody, conjugated to Alexa Fluor 555 or Alexa Fluor 488 (Life Technologies). The quantification of myelin segments was performed following a previously described protocol with ZEISS LSM Image Browser by acquiring 6 random fields of 4–5 coverslips for each experimental condition. […] The amount of myelin per axon (myelination index) was calculated as the ratio between the white pixels area and the green pixels area. […]

APJ = target: T1, APJ (Homo sapiens, UniProt P35414); assay: Binding assay APJ; settings: 100 nM
T1 construct: Eurofins Cerep (external service)
T1 sequence (P35414 1-380): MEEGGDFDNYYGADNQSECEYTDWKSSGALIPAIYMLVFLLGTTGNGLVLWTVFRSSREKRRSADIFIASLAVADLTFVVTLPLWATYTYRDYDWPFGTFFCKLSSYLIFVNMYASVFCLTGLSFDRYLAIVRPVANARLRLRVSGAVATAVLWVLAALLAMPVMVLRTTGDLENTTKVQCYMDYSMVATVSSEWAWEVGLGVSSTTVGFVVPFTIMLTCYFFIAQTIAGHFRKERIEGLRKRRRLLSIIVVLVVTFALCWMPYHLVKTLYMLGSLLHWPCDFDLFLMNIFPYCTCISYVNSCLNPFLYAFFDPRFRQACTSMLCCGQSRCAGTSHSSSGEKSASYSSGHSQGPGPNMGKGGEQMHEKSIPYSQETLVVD

CXCR2 = target: T2, CXCR2 (Homo sapiens, UniProt P25025); assay: Binding assay CXCR2; settings: 100 nM
T2 construct: Eurofins Cerep (external service)
T2 sequence (P25025 1-360): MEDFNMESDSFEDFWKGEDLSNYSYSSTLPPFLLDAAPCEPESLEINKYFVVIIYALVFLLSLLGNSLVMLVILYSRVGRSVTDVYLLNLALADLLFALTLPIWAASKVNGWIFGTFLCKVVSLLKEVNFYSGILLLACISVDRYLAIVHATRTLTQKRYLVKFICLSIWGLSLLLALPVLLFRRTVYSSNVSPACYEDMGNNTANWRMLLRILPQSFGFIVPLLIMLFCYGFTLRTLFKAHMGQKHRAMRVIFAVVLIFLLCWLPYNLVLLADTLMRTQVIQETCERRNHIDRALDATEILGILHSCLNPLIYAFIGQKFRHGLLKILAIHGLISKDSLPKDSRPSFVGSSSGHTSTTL

M5 = target: T3, M5 (Homo sapiens, UniProt P08912); assay: Binding assay M5; settings: 100 nM
T3 construct: Eurofins Cerep (external service)
T3 sequence (P08912 1-532): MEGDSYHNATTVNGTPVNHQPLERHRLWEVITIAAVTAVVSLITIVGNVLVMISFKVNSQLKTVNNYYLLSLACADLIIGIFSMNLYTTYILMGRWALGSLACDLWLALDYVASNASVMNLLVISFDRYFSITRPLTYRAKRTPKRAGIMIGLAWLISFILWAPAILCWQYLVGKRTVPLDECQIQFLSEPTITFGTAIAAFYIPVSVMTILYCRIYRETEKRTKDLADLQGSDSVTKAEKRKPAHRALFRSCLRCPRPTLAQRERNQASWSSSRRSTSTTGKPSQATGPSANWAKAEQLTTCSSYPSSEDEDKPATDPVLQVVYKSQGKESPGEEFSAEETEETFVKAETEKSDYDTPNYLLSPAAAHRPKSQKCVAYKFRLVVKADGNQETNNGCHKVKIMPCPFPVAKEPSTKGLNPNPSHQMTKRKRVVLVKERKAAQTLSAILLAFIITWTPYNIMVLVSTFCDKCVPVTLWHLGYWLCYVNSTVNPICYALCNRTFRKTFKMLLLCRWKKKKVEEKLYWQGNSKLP

[1] = mean of 2, read-out: % Of control specific binding, Mean
[2] = read-out: % Inhibition of control specific binding
[3] = single replicates 1 and 2, 0.1 µM
[4] = single replicates 1 and 2, read-out: % Of control specific binding

- remaining activity at 0.1 µM (APJ; [1]): 107%
- inhibition at 0.1 µM (APJ; [2]): -7%
- % Of control specific binding (APJ; [3]): 105.7%
- remaining activity at 0.1 µM (APJ; [4]): 108%
- remaining activity at 0.1 µM (CXCR2; [1]): 97.3%
- inhibition at 0.1 µM (CXCR2; [2]): 3%
- % Of control specific binding (CXCR2; [3]): 98.7%
- remaining activity at 0.1 µM (CXCR2; [4]): 96%
- remaining activity at 0.1 µM (M5; [1]): 97.4%
- inhibition at 0.1 µM (M5; [2]): 3%
- % Of control specific binding (M5; [3]): 105.1%
- remaining activity at 0.1 µM (M5; [4]): 89.7%
Compound: Cc1ccc(-c2nnc(SCC(=O)Nc3nccs3)[nH]2)cc1 [Compound 9]
- Myelination Index (OPC-DRG co-cultures): 155.0 ± 12.08%
